Measurements reported in patent US10646488B2 (Araxes Pharma LLC, priority 2016, dated 2020).

Target: T1, KRAS G12C 1-169, his-tagged protein, GDP-loaded (Homo sapiens, UniProt P01116, G12C)
T1 construct: KRAS G12C 1-169, his-tagged protein, GDP-loaded
Assay: Covalent binding (% modification) to KRAS G12C by mass spectrometry; further: test concentration or dose not given here
Conditions: covalent binding to KRAS G12C after a three minute incubation period

| SMILES | Binding % |
| --- | --- |
| C=CC(=O)N1C[C@H](C)N(c2nc(N3CC(N(C)C4CC4)C3)nc3c(F)c(-c4c(C)ccc5[nH]ncc45)c(Cl)cc23)C[C@H]1C [Compound 134, 1-((2R,5S)-4-(6-chloro-2-(3-(cyclopropyl (methyl)amino)azetidin-1-yl)-8-fluoro-7-(5-methyl-1H-indazol-4-yl)quinazolin-4-yl)-2,5-dimethyl-piperazin-1-yl) prop-2-en-1-one] | ++ (++ indicates binding activity from 50 to 90%) |
| C=CC(=O)N1C[C@H](C)N(c2nc(N3CC(N(C)C)C3)nc3c(F)c(-c4ccccc4O)c(Cl)cc23)C[C@H]1C [Compound 135, 1-((2R,5S)-4-(6-chloro-2-(3-(dimethylamino)azetidin-1-yl)-8-fluoro-7-(2-hydroxyphenyl)quinazolin-4-yl)-2,5-dimethyl-piperazin-1-yl) prop-2-en-1-one] | ++ (++ indicates binding activity from 50 to 90%) |
| C=CC(=O)N1C[C@H](C)N(c2nc(OCCN(CC)CC)nc3c(F)c(-c4c(C)ccc5cn[nH]c45)c(Cl)cc23)C[C@H]1C [Compound 136, 1-((2R,5S)-4-(6-chloro-2-(2-(diethylamino)ethoxy)-8-fluoro-7-(6-methyl-1H-indazol-7-yl)quinazolin-4-yl)-2,5-dimethyl-piperazin-1-yl) prop-2-en-1-one] | +++ (+++ indicates binding activity greater than 90%) |
| C=CC(=O)N1C[C@H](C)N(c2nc(OC3CCN(C4CC4)CC3)nc3c(F)c(-c4c(C)ccc5cn[nH]c45)c(Cl)cc23)C[C@H]1C [Compound 137, 1-((2R,5S)-4-(6-chloro-2-((1-cyclopropyl-piperidin-4-yl)oxy)-8-fluoro-7-(6-methyl-1H-indazol-7-yl)quinazolin-4-yl)-2,5-dimethyl-piperazin-1-yl) prop-2-en-1-one] | +++ (+++ indicates binding activity greater than 90%) |
| C=CC(=O)N1C[C@H](C)N(c2nc(N3CC4(CCN(C5CC5)C4)C3)nc3c(F)c(-c4c(C)ccc5[nH]ncc45)c(Cl)cc23)C[C@H]1C [Compound 140, 1-((2R,5S)-4-(6-chloro-2-(6-cyclopropyl-2,6-diazaspiro[3.4]octan-2-yl)-8-fluoro-7-(5-methyl-1H-indazol-4-yl)quinazolin-4-yl)-2,5-dimethyl-piperazin-1-yl) prop-2-en-1-one] | ++ (++ indicates binding activity from 50 to 90%) |
| C=CC(=O)N1C[C@H](C)N(c2nc(COCc3ncccc3F)nc3c(F)c(-c4c(O)cccc4F)c(Cl)cc23)C[C@H]1C [Compound 141, 1-((2R,5S)-4-(6-chloro-8-fluoro-7-(2-fluoro-6-hydroxyphenyl)-2-(((3-fluoro-pyridin-2-yl)methoxy)methyl)quinazolin-4-yl)-2,5-dimethyl-piperazin-1-yl) prop-2-en-1-one] | ++ (++ indicates binding activity from 50 to 90%) |
| C=CC(=O)N1C[C@H](C)N(c2nc(COCc3ncccc3F)nc3c(F)c(-c4c(C)ccc5[nH]ncc45)c(Cl)cc23)C[C@H]1C [Compound 142, 1-((2R,5S)-4-(6-chloro-8-fluoro-2-(((3-fluoro-pyridin-2-yl)methoxy)methyl)-7-(5-methyl-1H-indazol-4-yl)quinazolin-4-yl)-2,5-dimethyl-piperazin-1-yl) prop-2-en-1-one] | ++ (++ indicates binding activity from 50 to 90%) |
| C=CC(=O)N1C[C@H](C)N(c2nc(N3CC(N(C)C4CCC4)C3)nc3c(F)c(-c4c(C)ccc5[nH]ncc45)c(Cl)cc23)C[C@H]1C [Compound 143, 1-((2R,5S)-4-(6-chloro-2-(3-(cyclobutyl (methyl)amino)azetidin-1-yl)-8-fluoro-7-(5-methyl-1H-indazol-4-yl)quinazolin-4-yl)-2,5-dimethyl-piperazin-1-yl) prop-2-en-1-one] | +++ (+++ indicates binding activity greater than 90%) |
| C=CC(=O)N1C[C@H](C)N(c2nc(N3CC(N(C)C4CCC4)C3)nc3c(F)c(-c4c(C)ccc5cn[nH]c45)c(Cl)cc23)C[C@H]1C [Compound 144, 1-((2R,5S)-4-(6-chloro-2-(3-(cyclobutyl (methyl)amino)azetidin-1-yl)-8-fluoro-7-(6-methyl-1H-indazol-7-yl)quinazolin-4-yl)-2,5-dimethyl-piperazin-1-yl) prop-2-en-1-one] | +++ (+++ indicates binding activity greater than 90%) |
| C=CC(=O)N1C[C@H](C)N(c2nc(NC3CCN(C4CC4)CC3)nc3c(F)c(-c4c(C)ccc5cn[nH]c45)c(Cl)cc23)C[C@H]1C [Compound 145, 1-((2R,5S)-4-(6-chloro-2-((1-cyclopropyl-piperidin-4-yl)amino)-8-fluoro-7-(6-methyl-1H-indazol-7-yl)quinazolin-4-yl)-2,5-dimethyl-piperazin-1-yl) prop-2-en-1-one] | ++ (++ indicates binding activity from 50 to 90%) |
| C=CC(=O)N1C[C@H](C)N(c2nc(N3CC(N(C)C)C3)nc3c(F)c(-c4cc5ccccc5cc4O)c(Cl)cc23)C[C@H]1C [Compound 146, 1-((2R,5S)-4-(6-chloro-2-(3-(dimethylamino)azetidin-1-yl)-8-fluoro-7-(3-hydroxynaphthalen-2-yl)quinazolin-4-yl)-2,5-dimethyl-piperazin-1-yl) prop-2-en-1-one] | + (+ indicates binding activity greater than 0% and up to 50%) |
| C=CC(=O)N1C[C@H](C)N(c2nc(N3CC(N(C)C)C3)nc3c(F)c(-c4cc(O)cc5ccccc45)c(Cl)cc23)C[C@H]1C [Compound 147, 1-((2R,5S)-4-(6-chloro-2-(3-(dimethylamino)azetidin-1-yl)-8-fluoro-7-(3-hydroxynaphthalen-1-yl)quinazolin-4-yl)-2,5-dimethyl-piperazin-1-yl) prop-2-en-1-one] | +++ (+++ indicates binding activity greater than 90%) |
| C#CCN(C)C1CN(c2nc(N3C[C@@H](C)N(C(=O)C=C)C[C@@H]3C)c3cc(Cl)c(-c4c(C)ccc5cn[nH]c45)c(F)c3n2)C1 [Compound 148, 1-((2R,5S)-4-(6-chloro-8-fluoro-2-(3-(methyl (prop-2-yn-1-yl)amino)azetidin-1-yl)-7-(6-methyl-1H-indazol-7-yl)quinazolin-4-yl)-2,5-dimethyl-piperazin-1-yl) prop-2-en-1-one] | ++ (++ indicates binding activity from 50 to 90%) |
| C=CC(=O)N1C[C@H](C)N(c2nc(N3CC4(CCN(C5CC5)C4)C3)nc3c(F)c(-c4c(O)cccc4F)c(Cl)cc23)C[C@H]1C [Compound 149, 1-((2R,5S)-4-(6-chloro-2-(6-cyclopropyl-2,6-diazaspiro[3.4]octan-2-yl)-8-fluoro-7-(2-fluoro-6-hydroxyphenyl)quinazolin-4-yl)-2,5-dimethyl-piperazin-1-yl) prop-2-en-1-one] | ++ (++ indicates binding activity from 50 to 90%) |
| C=CC(=O)N1CCN(c2nc(N3CC(C)(N(C)C)C3)nc3c(F)c(-c4c(C)ccc5[nH]ncc45)c(Cl)cc23)[C@@H](C)C1 [Compound 150, 1-((3S)-4-(6-chloro-2-(3-(dimethylamino)-3-methylazetidin-1-yl)-8-fluoro-7-(5-methyl-1H-indazol-4-yl)quinazolin-4-yl)-3-methyl-piperazin-1-yl) prop-2-en-1-one] | +++ (+++ indicates binding activity greater than 90%) |
| C=CC(=O)N1CCN(c2nc(N3CC(C)(N(C)C)C3)nc3c(F)c(-c4c(O)cccc4F)c(Cl)cc23)[C@@H](C)C1 [Compound 153, 1-((3S)-4-(6-chloro-2-(3-(dimethylamino)-3-methylazetidin-1-yl)-8-fluoro-7-(2-fluoro-6-hydroxyphenyl)quinazolin-4-yl)-3-methyl-piperazin-1-yl) prop-2-en-1-one] | +++ (+++ indicates binding activity greater than 90%) |
| C=CC(=O)N1C[C@H](C)N(c2nc(OCCCN(CC)CC)nc3c(F)c(-c4c(O)cccc4F)c(Cl)cc23)C[C@H]1C [Compound 158, 1-((2R,5S)-4-(6-chloro-2-(3-(diethylamino)propoxy)-8-fluoro-7-(2-fluoro-6-hydroxyphenyl)quinazolin-4-yl)-2,5-dimethyl-piperazin-1-yl) prop-2-en-1-one] | +++ (+++ indicates binding activity greater than 90%) |
| C=CC(=O)N1C[C@H](C)N(c2nc(N3CC4(CCOCC4)C3)nc3c(F)c(-c4c(O)cccc4F)c(Cl)cc23)C[C@H]1C [Compound 159, 1-((2R,5S)-4-(6-chloro-8-fluoro-7-(2-fluoro-6-hydroxyphenyl)-2-(7-oxa-2-azaspiro[3.5]nonan-2-yl)quinazolin-4-yl)-2,5-dimethyl-piperazin-1-yl) prop-2-en-1-one] | ++ (++ indicates binding activity from 50 to 90%) |
| C=CC(=O)N1C[C@H](C)N(c2nc(N3CC(N(C)C)C3)nc3c(F)c(-c4cc(Cl)ccc4F)c(Cl)cc23)C[C@H]1C [Compound 160, 1-((2R,5S)-4-(6-chloro-7-(5-chloro-2-fluoro-phenyl)-2-(3-(dimethylamino)azetidin-1-yl)-8-fluoroquinazolin-4-yl)-2,5-dimethyl-piperazin-1-yl) prop-2-en-1-one] | ++ (++ indicates binding activity from 50 to 90%) |
| C=CC(=O)N1C[C@H](C)N(c2nc(N3CC(N(C)C)C3)nc3c(F)c(-c4ccc(Cl)cc4F)c(Cl)cc23)C[C@H]1C [Compound 161, 1-((2R,5S)-4-(6-chloro-7-(4-chloro-2-fluoro-phenyl)-2-(3-(dimethylamino)azetidin-1-yl)-8-fluoroquinazolin-4-yl)-2,5-dimethyl-piperazin-1-yl) prop-2-en-1-one] | + (+ indicates binding activity greater than 0% and up to 50%) |
| C=CC(=O)N1C[C@H](C)N(c2nc(N3CC4(CCOCC4)C3)nc3c(F)c(-c4c(C)ccc5[nH]ncc45)c(Cl)cc23)C[C@H]1C [Compound 162, 1-((2R,5S)-4-(6-chloro-8-fluoro-7-(5-methyl-1H-indazol-4-yl)-2-(7-oxa-2-azaspiro[3.5]nonan-2-yl)quinazolin-4-yl)-2,5-dimethyl-piperazin-1-yl) prop-2-en-1-one] | + (+ indicates binding activity greater than 0% and up to 50%) |
